Biological target: T1, Smc1/Smc3 heterodimer with Scc1-C (cohesin) (Saccharomyces cerevisiae, UniProt P32908+P47037, P47037:K38I, form not given)
T1 construct: N-terminal tags; Sf9 insect cells; fluorescently labelled for MST; with Sister chromatid cohesion protein 1
T1 sequence (P32908 1-1225): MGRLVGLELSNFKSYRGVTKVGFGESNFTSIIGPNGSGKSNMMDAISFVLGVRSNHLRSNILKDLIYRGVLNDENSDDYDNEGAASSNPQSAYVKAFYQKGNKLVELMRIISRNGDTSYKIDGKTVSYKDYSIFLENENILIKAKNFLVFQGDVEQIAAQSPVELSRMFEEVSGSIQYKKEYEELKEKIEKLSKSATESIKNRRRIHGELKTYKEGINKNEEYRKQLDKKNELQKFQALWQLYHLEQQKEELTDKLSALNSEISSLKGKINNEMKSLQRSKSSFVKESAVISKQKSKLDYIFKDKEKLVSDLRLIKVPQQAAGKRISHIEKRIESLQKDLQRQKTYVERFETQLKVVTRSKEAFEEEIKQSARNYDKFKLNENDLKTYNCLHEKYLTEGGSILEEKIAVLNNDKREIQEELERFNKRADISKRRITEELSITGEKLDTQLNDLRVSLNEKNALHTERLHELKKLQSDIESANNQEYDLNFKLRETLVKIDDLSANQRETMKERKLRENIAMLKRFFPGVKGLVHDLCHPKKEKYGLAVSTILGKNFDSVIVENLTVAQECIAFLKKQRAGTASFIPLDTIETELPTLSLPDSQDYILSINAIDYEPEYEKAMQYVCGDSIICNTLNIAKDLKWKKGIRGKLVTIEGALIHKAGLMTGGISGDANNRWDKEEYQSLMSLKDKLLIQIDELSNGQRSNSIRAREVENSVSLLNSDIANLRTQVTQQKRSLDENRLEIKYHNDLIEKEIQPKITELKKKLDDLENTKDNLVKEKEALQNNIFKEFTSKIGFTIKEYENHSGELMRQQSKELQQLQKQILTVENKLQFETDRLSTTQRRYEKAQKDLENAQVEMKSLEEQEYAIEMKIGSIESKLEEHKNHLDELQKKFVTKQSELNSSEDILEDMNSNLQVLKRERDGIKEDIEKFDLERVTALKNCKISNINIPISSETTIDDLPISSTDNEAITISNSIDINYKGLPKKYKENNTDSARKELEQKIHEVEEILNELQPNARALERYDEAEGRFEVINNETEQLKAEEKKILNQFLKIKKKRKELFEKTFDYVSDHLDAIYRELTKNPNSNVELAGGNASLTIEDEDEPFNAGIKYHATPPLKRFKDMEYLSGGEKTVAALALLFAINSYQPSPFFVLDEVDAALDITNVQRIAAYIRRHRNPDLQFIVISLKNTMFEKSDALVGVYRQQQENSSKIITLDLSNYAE
T1 sequence (P47037 1-1230 K38I): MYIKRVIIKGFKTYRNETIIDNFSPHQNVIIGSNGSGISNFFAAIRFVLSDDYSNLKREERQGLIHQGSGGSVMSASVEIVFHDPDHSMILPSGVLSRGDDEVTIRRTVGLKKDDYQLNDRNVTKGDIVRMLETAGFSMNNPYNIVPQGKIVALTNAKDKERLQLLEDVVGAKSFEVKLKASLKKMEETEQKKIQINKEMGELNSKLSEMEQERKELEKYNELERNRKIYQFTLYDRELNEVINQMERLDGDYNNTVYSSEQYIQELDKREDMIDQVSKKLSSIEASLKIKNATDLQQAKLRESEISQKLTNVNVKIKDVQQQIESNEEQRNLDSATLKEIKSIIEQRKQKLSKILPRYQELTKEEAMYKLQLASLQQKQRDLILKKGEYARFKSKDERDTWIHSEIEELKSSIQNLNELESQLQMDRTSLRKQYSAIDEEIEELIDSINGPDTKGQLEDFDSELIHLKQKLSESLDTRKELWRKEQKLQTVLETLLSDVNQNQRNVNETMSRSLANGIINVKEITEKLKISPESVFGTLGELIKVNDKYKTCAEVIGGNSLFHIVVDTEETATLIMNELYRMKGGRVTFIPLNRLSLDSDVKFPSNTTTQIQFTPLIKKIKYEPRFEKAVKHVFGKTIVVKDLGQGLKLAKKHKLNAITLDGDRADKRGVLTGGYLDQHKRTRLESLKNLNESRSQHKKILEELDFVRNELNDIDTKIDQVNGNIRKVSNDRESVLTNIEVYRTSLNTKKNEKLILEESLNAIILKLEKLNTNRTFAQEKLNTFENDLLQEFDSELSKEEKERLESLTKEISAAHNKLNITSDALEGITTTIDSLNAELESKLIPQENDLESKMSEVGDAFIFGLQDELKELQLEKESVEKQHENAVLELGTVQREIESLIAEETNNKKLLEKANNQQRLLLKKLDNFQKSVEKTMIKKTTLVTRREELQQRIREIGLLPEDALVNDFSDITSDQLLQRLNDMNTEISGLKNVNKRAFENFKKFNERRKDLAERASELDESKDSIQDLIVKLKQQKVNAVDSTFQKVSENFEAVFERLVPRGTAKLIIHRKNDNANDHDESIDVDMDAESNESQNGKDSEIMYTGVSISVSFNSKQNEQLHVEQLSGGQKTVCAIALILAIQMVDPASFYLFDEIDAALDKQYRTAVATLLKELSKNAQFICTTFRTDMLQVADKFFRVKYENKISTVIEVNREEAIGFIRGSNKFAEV
T1 sequence (Q12158 1-566 partner): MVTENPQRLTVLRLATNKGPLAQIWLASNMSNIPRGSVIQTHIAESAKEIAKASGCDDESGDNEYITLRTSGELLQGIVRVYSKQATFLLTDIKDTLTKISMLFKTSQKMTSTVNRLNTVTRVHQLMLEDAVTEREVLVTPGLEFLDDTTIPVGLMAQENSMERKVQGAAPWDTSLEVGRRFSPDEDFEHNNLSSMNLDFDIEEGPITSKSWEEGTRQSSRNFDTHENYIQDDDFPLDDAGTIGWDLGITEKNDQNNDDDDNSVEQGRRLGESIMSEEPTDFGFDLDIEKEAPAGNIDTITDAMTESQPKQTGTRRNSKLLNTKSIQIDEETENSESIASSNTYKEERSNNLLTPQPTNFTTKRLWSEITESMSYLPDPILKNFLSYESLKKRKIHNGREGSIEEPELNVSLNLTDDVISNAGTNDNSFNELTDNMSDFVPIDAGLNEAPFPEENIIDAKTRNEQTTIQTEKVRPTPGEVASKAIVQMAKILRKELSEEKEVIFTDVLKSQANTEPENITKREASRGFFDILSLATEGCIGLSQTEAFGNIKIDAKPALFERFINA
Assay: microscale thermophoresis
Conditions: fluorescently labelled protein; Smc1 co-purified with Scc1-C, plus Smc3; binding abrogated

Row | SMILES | microscale thermophoresis
1 | Nc1ncnc2c1ncn2[C@@H]1O[C@H](COP(=O)(O)OP(=O)(O)O)[C@@H](O)[C@H]1O [ADP] | each of the Walker A mutations efficiently abrogated binding to ATP and ADP
2 | Nc1ncnc2c1ncn2[C@@H]1O[C@H](COP(=O)(O)OP(=O)(O)OP(=O)(O)O)[C@@H](O)[C@H]1O [ATP] | each of the Walker A mutations efficiently abrogated binding to ATP and ADP
